Data from ChEMBL document CHEMBL6103553, “Small molecule inhibitors targeting PD-L1, CTLA4, VISTA, TIM-3, and LAG3 for cancer immunotherapy (2020-2024)” (Eur J Med Chem, 2025).
One block for each compound: values may come before it.

Tests used:
[1] = Inhibition of LAG-3/MHC-II (unknown origin) interaction by TR-FRET assay; design: species or system Homo sapiens
[2] = Induction of PD-L1 degradation in human NCI-H460 cells transfected with siRNA ABCB1 incubated for 2 hrs by Western blot analysis; details: NCI-H460, 2 h
[3] = Inhibition of his-tagged CTLA-4/CD80 (unknown origin) protein-protein interaction by TR-FRET assay; design: species or system Homo sapiens
[4] = Binding affinity to PD-L1 (unknown origin) assessed as dissociation constant; design: species or system Homo sapiens
[5] = Inhibition of PD-L1 (unknown origin) by FRET assay; design: species or system Homo sapiens
[6] = Inhibition of CTLA-4/CD80 (unknown origin) protein-protein interaction; design: species or system Homo sapiens
[7] = molecular target: Programmed cell death protein 1/Programmed cell death 1 ligand 1 (Homo sapiens, UniProt Q9NZQ7); assay: Inhibition of human PD-1/PD-L1 incubated for 1 hr by HTRF assay; assay type: protein-complex assay
Programmed cell death protein 1/Programmed cell death 1 ligand 1, sequence (Q15116 whole entry, the tested form may be a part): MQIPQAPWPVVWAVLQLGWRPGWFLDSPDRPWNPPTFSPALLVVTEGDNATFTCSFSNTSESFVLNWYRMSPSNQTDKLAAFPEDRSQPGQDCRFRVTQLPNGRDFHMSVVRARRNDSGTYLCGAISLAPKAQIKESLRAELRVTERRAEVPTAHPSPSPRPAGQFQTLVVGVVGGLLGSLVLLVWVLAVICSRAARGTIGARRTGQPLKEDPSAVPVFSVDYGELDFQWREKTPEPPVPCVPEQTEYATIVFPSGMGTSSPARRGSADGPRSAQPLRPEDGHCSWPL
Programmed cell death protein 1/Programmed cell death 1 ligand 1, sequence (Q9NZQ7 whole entry, the tested form may be a part): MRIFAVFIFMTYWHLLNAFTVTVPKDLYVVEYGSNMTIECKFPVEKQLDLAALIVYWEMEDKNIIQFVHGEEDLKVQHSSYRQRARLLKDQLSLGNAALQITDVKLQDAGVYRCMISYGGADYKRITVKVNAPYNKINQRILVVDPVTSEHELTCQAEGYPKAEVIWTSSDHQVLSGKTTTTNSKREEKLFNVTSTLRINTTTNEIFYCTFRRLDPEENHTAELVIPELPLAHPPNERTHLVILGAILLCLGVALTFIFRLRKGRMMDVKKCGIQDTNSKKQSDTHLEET

[8] = molecular target: T1, V-type immunoglobulin domain-containing suppressor of T-cell activation (Homo sapiens, UniProt Q9H7M9); assay: Inhibition of N-terminal His-tagged human recombinant VISTA (1 to 161 residues) transfected in human Expi293 cells incubated for 60 mins by ELISA analysis; assay type: cell-based
T1 sequence (Q9H7M9 whole entry): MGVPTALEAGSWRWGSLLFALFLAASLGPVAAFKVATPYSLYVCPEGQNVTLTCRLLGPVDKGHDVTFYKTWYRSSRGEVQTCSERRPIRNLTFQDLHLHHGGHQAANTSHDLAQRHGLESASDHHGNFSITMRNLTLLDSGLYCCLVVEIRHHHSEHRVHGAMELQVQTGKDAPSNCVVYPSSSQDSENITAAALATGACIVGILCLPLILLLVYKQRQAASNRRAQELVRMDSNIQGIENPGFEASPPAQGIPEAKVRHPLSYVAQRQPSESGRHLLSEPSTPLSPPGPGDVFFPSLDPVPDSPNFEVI

[9] = Inhibition of PD-L1 (unknown origin) by HTRF assay; design: species or system Homo sapiens
[10] = molecular target: T1, V-type immunoglobulin domain-containing suppressor of T-cell activation; assay: biochemical
Description: Binding affinity to N-terminal His-tagged human recombinant VISTA (1 to 161 residues) transfected in human Expi293 cells assessed as dissociation constant incubated for 60 mins by SPR assay

[11] = Inhibition of VISTA/VSIG-3 (unknown origin) protein-protein interaction by TR-FRET assay
MC-38 = assay: Antitumor activity against mouse MC-38 cells implanted in C57BL/6N mouse assessed as reduction in tumor volume at 10 mg/kg, ip in presence of PD-L1 and measured after 10 days relative to control; assay type: functional; design: scale not given: the % may be the effect or the level left; details: time 10 day
[12] = Stability in mouse plasma assessed as half life; assay type: ADME, cell-free
[13] = Inhibition of human PD-L1 by HTRF assay
Tubulin = assay: Inhibition of tubulin polymerization (unknown origin); assay type: protein-complex assay, Homo sapiens

DC50 [2]: < 5 µM
Structure (SMILES): N=c1[nH]c2c3c(c4[nH]c(=N)[nH]c4c2[nH]1)[C@@H](CNC(=O)c1cc(Br)c(Br)[nH]1)[C@@H]3CNC(=O)c1cc(Br)c(Br)[nH]1

DC50 [2]: < 2 µM
Structure (SMILES): COc1ccc2cc3[n+](cc2c1OC)CCc1cc2c(cc1-3)OCO2 [BERBERINE CHLORIDE]

IC50 [1]: 8.3 µM
Structure (SMILES): Cc1cc(C(=O)COc2ccc(NC(=O)c3ccco3)cc2)c(C)n1-c1ccccc1

DC50 [2]: < 50 µM
Structure (SMILES): Cc1c(COc2ccc(CN3CCCCC3C(=O)NCCCn3cc(CCCC(=O)NCCCC[C@@H]4NC(=O)[C@@H](Cc5ccc(O)cc5)NC(=O)[C@H](CC(=O)O)NC(=O)CNC(=O)[C@H](CCCNC(=N)N)NC4=O)nn3)cc2Br)cccc1-c1ccccc1 (some centres undefined)

DC50 [2]: < 0.1 µM
Structure (SMILES): Cc1c(COc2ccc(CN3CCCCC3C(=O)NCCOCCNC(=O)CCCCCn3cc(CCCC(=O)NCCCC[C@@H]4NC(=O)[C@@H](Cc5ccc(O)cc5)NC(=O)[C@H](CC(=O)O)NC(=O)CNC(=O)[C@H](CCCNC(=N)N)NC4=O)nn3)cc2Br)cccc1-c1ccccc1 (some centres undefined)

IC50 [9]: < 100 nM
Structure (SMILES): CCOC(=O)C(COC(=O)NCCSSCCNC(=O)O/N=C(\Nc1ccc(C)c(O)c1)c1nonc1N)NCc1cc(Cl)c(OCc2cccc(-c3ccccc3)c2Br)cc1OCc1ccnc(C#N)c1 (centres undefined)

Kd [10]: 6.2 µM | IC50 [8]: 4.5 µM | IC50 [11]: 9.7 µM
Structure (SMILES): CN(C)c1n/c(=N/Cc2ccco2)ss1

IC50 [6]: 1400 nM
Structure (SMILES): C/C(=N\OCC(=O)Nc1ccc(C)c(F)c1)c1nc(-c2ccccc2)[nH]c1C

IC50 [1]: > 50 µM
Structure (SMILES): CC(=O)Nc1ccc(OCC(=O)c2cc(C)n(C(C)C)c2C)cc1

half-life [12]: < 30 min | Kd [4]: 156 nM | IC50 [5]: 143 nM
Structure (SMILES): Oc1cc(-c2ccc(C(F)(F)F)cc2)nn1-c1ccccn1

Kd [4]: 110 nM | IC50 [5]: 77 nM
Structure (SMILES): Oc1cc(-c2ccc(Cl)cc2Cl)nn1-c1ccccn1

IC50 [13]: 48.8 nM | IC50 (Tubulin): 16.1 µM
Structure (SMILES): COc1ccc(/C=C\c2cc(OC)c(OC)c(OC)c2)cc1OCc1ccc(CC=O)cc1

Continued, compound first:

Structure (SMILES): Cc1cc(C(=O)COc2ccc(NC(=O)c3ccco3)cc2)c(C)n1Cc1ccccc1
IC50 [1]: 4.2 µM

Structure (SMILES): Clc1ccc(C2=NN(c3ccccc3)C(c3ccco3)C2)cc1 (centres undefined)
IC50 [3]: 1 µM

Structure (SMILES): Cc1cc(O)n(-c2ccccc2)n1
Kd [4]: 98 nM | IC50 [5]: 92 nM

Structure (SMILES): O=[N+]([O-])c1cccc(/C=N/OCc2csc(-c3ccccc3)n2)c1
IC50 [6]: 4500 nM

Structure (SMILES): Oc1cc(-c2cccc(C(F)(F)F)c2)nn1-c1ccccn1
Kd [4]: 1200 nM | IC50 [5]: 1100 nM

Structure (SMILES): COc1ccc(-c2nc(N)nc(-c3cc(C)ccc3O)c2Cl)cc1
IC50 [7]: 2.44 nM

Structure (SMILES): Cc1c(-c2ccccc2)ccc2nc(-c3ccc(CNCCO)cc3)[nH]c12
IC50 [8]: 1.1 µM

Structure (SMILES): CN(C)c1n/c(=N/Cc2cccs2)ss1
IC50 [8]: 6.4 µM

Structure (SMILES): Cc1ccc([C@@H]2O[C@H](CO)[C@@H](O)[C@H](O)[C@H]2O)cc1Cc1ccc(-c2ccc(F)cc2)s1 [CANAGLIFLOZIN ANHYDROUS]
DC50 [2]: < 20 µM

Structure (SMILES): O[C@@H](COc1cccc2ncccc12)CN1CCN([C@@H]2c3ccccc3[C@@H]3[C@H](c4ccccc42)C3(F)F)CC1 [ZOSUQUIDAR]
DC50 [2]: < 10 µM

Structure (SMILES): CCOC(=O)C1=C(COCCS)NC(C)=C(C(=O)OC)C1c1ccccc1Cl (centres undefined)
DC50 [2]: < 10 µM

Structure (SMILES): Cc1c(COc2ccc(CN3CCCCC3C(=O)NCCOCCOCCOCCNC(=O)CCCCCn3cc(CCCC(=O)NCCCC[C@@H]4NC(=O)[C@@H](Cc5ccc(O)cc5)NC(=O)[C@H](CC(=O)O)NC(=O)CNC(=O)[C@H](CCCNC(=N)N)NC4=O)nn3)cc2Br)cccc1-c1ccccc1 (some centres undefined)
DC50 [2]: < 0.1 µM

Structure (SMILES): COc1ccccc1C1CN(c2ccccc2)N=C1c1cccs1 (centres undefined)
IC50 [6]: 1900 nM

Structure (SMILES): Cc1cccc2nc(-c3cccc(CNCCO)c3)[nH]c12
IC50 [8]: 256 µM

Structure (SMILES): Clc1ccc(C2CN(c3ccccc3)N=C2c2ccco2)cc1 (centres undefined)
IC50 [3]: 4.1 µM

Structure (SMILES): Cc1nc(C)c(C(=O)NNC(=O)Cc2ccccc2)cc1C(=O)NNC(=O)Cc1ccccc1
IC50 [7]: 1.09 nM

Structure (SMILES): O=[N+]([O-])c1cccc(/C=N/OCc2coc(-c3cccc(F)c3)n2)c1
IC50 [3]: 5.16 µM

Structure (SMILES): CN(C)C(=N)NC(=N)N [METFORMIN]
DC50 [2]: < 2 µM

Structure (SMILES): COc1ccc(-c2nc(CO/N=C/c3ccccc3Cl)co2)cc1
IC50 [6]: 1500 nM

Structure (SMILES): C[C@@]1(C(=O)O)CC[C@]2(C)CC[C@]3(C)C4=CC(=O)c5c(cc(O)c(O)c5C=O)[C@]4(C)CC[C@@]3(C)[C@@H]2C1
DC50 [2]: < 5 µM

Structure (SMILES): O=C(CSc1ccccc1Cl)N1N=C(c2cccs2)CC1c1ccco1 (centres undefined)
IC50 [6]: 1300 nM

Structure (SMILES): CCCCCN(CCCCC)C(C)C(=O)c1cc(C)c2ccc3cc(C(C)C)ccc3c2c1 (centres undefined)
Activity (MC-38): 93.6% | IC50 [7]: 96 nM

Structure (SMILES): Clc1ccc(C2=NN(Cc3ccccc3)CC2c2ccccc2)cc1 (centres undefined)
IC50 [6]: 970 nM
